Laboratory results: patent publication US8173668B1 (Alcon Research, Ltd., priority 2007, dated 2012)

How the values were obtained:
[1] = target: human cloned B2-receptors (Homo sapiens, UniProt P30411); assay: HTRF-based assay of endogenous IP1 production in CHO cells; type: cell-based; conditions: CHO cells expressing human cloned B2-receptors, read-out: EC50, production of endogenous IP1 from PI turnover
Method: The cells are suspended in IP1 stimulation buffer containing Hepes 10 mM, CaCl2 1 mM, MgCl2 0.5 mM, KCl 4.2 mM, NaCl 146 mM, Glucose 5.5 mM, LiCl 50 mM pH 7.4, then distributed in microplates at a density of 40,000 cells/well (B2 receptor assays) or 30,000 cells/well (B1 receptor assays). Test compounds are added to the cells at various concentrations and incubated for 20 min at 37° C. […] Following the 20 min incubation at 37° C., the cells are lysed and the fluorescence acceptor (D2-labeled IP1) and fluorescence donor (anti-IP1 antibody labeled with europium cryptate) are added. After 60 min at room temperature, the fluorescence transfer is measured at λex=337 nm and λem=620 and 665 nm using a microplate reader.

h-CM cells = assay: MMP activity in h-CM cells after 24 hour exposure; type: cell-based, human; conditions: 1 μM
Method: As with FP-class prostanoids, the IOP-lowering effects of BK may involve the stimulation of production of various MMPs that in turn digest the extracellular matrix (ECM) to promote outflow and thus lower IOP (Mietz et al., Invest. Ophthalmol. Vis. Sci. 44: 5182-5188, 2003; Webb et al., J. Ocular Pharmacol. Ther. 22: 310-316, 2006). Cells isolated from human or animal ocular or non-ocular tissues, or cells expressing recombinant (preferably human) BK receptors are seeded in 48-wells culture plates and allowed to reach confluence. […] BK (100 nM) can be used a positive control compound. After this time the supernatant from each well is concentrated 20-fold (Centricon Concentrators; Millipore Corp., Bedford, Mass.). Equivalent volumes of media are then loaded onto 12% sodium dodicyl sulfate polyacrylamide gels, where the secreted proteins are separated according to their molecular weights by standard SDS-polyacrylamide gel electrophoresis protocols and transferred onto nitrocellulose paper. The level of MMP-1, MMP-2, MMP-3 and MMP-9 is then determined by immunoblot analysis with rabbit polyclonal anti-MMP antibodies. Bands are visualized by the addition of anti-rabbit horseradish peroxidase-conjugated secondary antibodies (New England Biolabs, Inc.; Beverly, Mass.) and enhanced chemiluminescent reagents (Pierce Biotechnology, Inc., Rockford, Ill.) (Mietz et al., Invest. Ophthalmol. Vis. Sci. 44: 5182-5188, 2003; Webb et al., J. Ocular Pharmacol. Ther. 22: 310-316, 2006). BK agonists should stimulate the production of some or all of MMP-1, MMP-2, MMP-3 and MMP-9. […] However, BK agonists with lower potencies than the above limits, whether partial or full agonists, can still be considered useful ocular hypotensive agents and may be useful as such.
Enhancement of such MMP synthesis and release by h-CM in response to FR-190997 may explain the efficacious IOP-lowering observed with this BK agonist in the glaucomatous monkey eyes (see below).

h-NPE cells = assay: Prostaglandin production in h-NPE cells; type: cell-based, human; conditions: 1-10 μM
Method: A functional assay to discover BK agonists may involve the measurement of prostaglandin E2 (PGE2) production (Wiernas et al. Brit. J. Pharmacol. 123: 1127-1137, 1998), for instance, in cells isolated from human or animal ocular or non-ocular tissues, or cells expressing recombinant (preferably human) BK receptors. Cells expressing BK receptors are seeded in 48-wells culture plates and allowed to reach confluence. After this time the cells are rinsed twice with 0.5 mL of phosphate buffered saline and incubated with the test agent made up in 0.5 mL Dulbeco's modified Eagle's medium (DMEM)/F-12 for 1 h at 37° C. […]
After this incubation, all tubes are placed in an ice-bath and 1 ml cold precipitating reagent supplied in the kit is added to the tubes, the content mixed and incubated for 25 min at 4° C. […] The supernatants of all tubes are decanted as specified in the kit instructions and the RIA samples analyzed on a gamma-counter. The levels of PGE2 generated by the test agent are then quantified in comparison with the PGE2-standard curve. Dose-response data for the test agent are constructed and the potency and intrinsic activity determined as described above for other assays. […]

ocular normotensive mice = assay: Acute IOP response in mouse eyes; type: in vivo; conditions: 0.1% topical, IOP at 6 and 24 hours; FIG. 7
Method: IOP is determined with an applanation pneumatonometer after light corneal anesthesia with 0.1% proparacaine. After baseline IOP measurements were taken, one eye of each of 8 mice was topically dosed with 0.1% FR-190997 in the formulation described in Example 10 or the vehicle of Example 10. The contralateral eye was dosed with vehicle as a control. Subsequent IOP measurements were taken at 6 and 24 hours.

[2] = tested on: anterior eye segments of pig eyes; assay: Outflow facility in perfused anterior eye segments; conditions: 1 μM, perfused porcine anterior eye segments, n=5; FIG. 8
Method: Anterior eye segments obtained from postmortem porcine eyes were used to study the effects of non-peptide agonists on fluid outflow through the trabecular meshwork and Schlemms' canal (Erickson-Lamey et al., Curr. Eye Res. 7: 799-807, 1988; Vaajanen et al. J. Ocular Pharmacol. Ther. 23: 124-131, 2007). The postmortem eyes were placed in DMEM containing 50 U/ml penicillin, 50 μg/mL streptomycin, and 5 μg/mL amphotericin B prior to dissection under sterile conditions. Eyes were bisected at the to equator and the anterior chamber transferred to a petri dish. The lens was removed and the remaining choroid, iris, and ciliary body gently teased away. […] Perfusion pressure for standard perfusion was maintained at a constant level of 10 mmHg, and rate of fluid outflow monitored continuously (i.e. by means of a Model ACCU 124 analytical balance; Fisher Scientific, Pittsburgh, Pa.) throughout the experiment. The rate of fluid flow was recorded by a computer utilizing Collect XL software (Lab Tronics, Inc; Guelph, Ontario, Canada). Outflow facility was calculated as the ratio of flow rate to perfusion pressure (μL/min/mmHg).
Preparations were allowed to stabilize overnight (14-16 hr), and baseline facilities were then recorded for 40-60 min. […]

Sequence of human cloned B2-receptors (P30411 whole entry): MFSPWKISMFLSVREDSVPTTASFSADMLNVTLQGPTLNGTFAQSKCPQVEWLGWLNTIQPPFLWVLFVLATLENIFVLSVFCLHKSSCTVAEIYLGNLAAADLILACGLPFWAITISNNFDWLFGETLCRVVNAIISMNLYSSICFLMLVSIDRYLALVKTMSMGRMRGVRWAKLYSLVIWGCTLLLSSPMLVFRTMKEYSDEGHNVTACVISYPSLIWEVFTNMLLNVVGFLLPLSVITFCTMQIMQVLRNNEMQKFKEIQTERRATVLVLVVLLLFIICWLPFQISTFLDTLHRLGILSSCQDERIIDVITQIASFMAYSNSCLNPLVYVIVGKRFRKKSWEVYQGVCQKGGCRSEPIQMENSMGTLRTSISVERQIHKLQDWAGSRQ

For `CNC(=O)c1ccc(/C=C/C(=O)NCC(=O)N(C)c2ccc(Cl)c(COc3cccc4c(OCc5ccccn5)cc(C)nc34)c2Cl)cc1` [FR-190997], the EC50 [1] was 21 nM, the MMP-1 activity (h-CM cells) was 59 % above basal levels and the MMP-2 activity (h-CM cells) was “not MMP-2 activity”. For the same compound, the MMP-3 activity (h-CM cells) was 96 % above basal levels, the production of prostaglandins (h-NPE cells) was 1.26 fold above basal and the “effect on IOP in ocular normotensive mice” value (ocular normotensive mice) was “lower IOP”. The outflow facility [2] was “increased the outflow facility flow”.
